Source: ChEMBL document CHEMBL5143695, “Benzobis(imidazole) derivatives as STAT3 signal inhibitors with antitumor activity” (Bioorg Med Chem, 2022)
The source made the active and inactive calls. The rule behind the calls is not given here.

Experiments:
[1] = system: ECa-109 cell line; assay: Inhibition of cell migration in human EC109 cells incubated for 48 hrs by microscopic analysis based wound healing assay; type: functional; settings: dose 5-10 µM, DDE = dose-dependent effect
[2] = target: Signal transducer and activator of transcription 3 (Homo sapiens) (UniProt P40763); assay: Inhibition of STAT3 phosphorylation at Y705 residue in human EC109 cells measured after 16 hrs by Western blotting analysis; type: cell-based; settings: dose 2.5-20 µM, DDE = dose-dependent effect
[3] = system: ECa-109 cell line; assay: Induction of cell cycle arrest in human EC109 cells assessed as downregulation of cyclin D1 protein expression by Western blotting analysis; type: functional, cell-based; settings: dose 2.5-20 µM, DDE = dose-dependent effect
[4] = system: HepG2; assay: Induction of apoptosis in human HepG2 cells assessed as necrotic cells at 20 uM incubated for 48 hrs by Annexin V/PI staining based flow cytometry method (reference value: 0.57%); type: functional
[5] = system: ECa-109 cell line; assay: Induction of apoptosis in human EC109 cells assessed as late apoptotic cells at 20 uM incubated for 48 hrs by Annexin V/PI staining based flow cytometry method (reference value: 6.17%); type: functional
[6] = system: HepG2; assay: Induction of apoptosis in human HepG2 cells assessed as early apoptotic cells at 10 uM incubated for 48 hrs by Annexin V/PI staining based flow cytometry method (reference value: 3.31%); type: functional
[7] = system: HepG2; assay: Induction of cell cycle arrest in human HepG2 cells assessed as downregulation of cyclin D1 protein expression by Western blotting analysis; type: functional, cell-based; settings: dose 2.5-20 µM, DDE = dose-dependent effect
[8] = system: ECa-109 cell line; assay: Induction of apoptosis in human EC109 cells assessed as necrotic cells at 20 uM incubated for 48 hrs by Annexin V/PI staining based flow cytometry method (reference value: 0.73%); type: functional
[9] = system: HepG2; assay: Induction of apoptosis in human HepG2 cells assessed as downregulation of cyclin D1 protein expression by Western blotting analysis; type: functional, cell-based; settings: dose 2.5-20 µM, DDE = dose-dependent effect
[10] = system: ECa-109 cell line; assay: Induction of apoptosis in human EC109 cells assessed as late apoptotic cells at 5 uM incubated for 48 hrs by Annexin V/PI staining based flow cytometry method (reference value: 6.17%); type: functional
[11] = target: Signal transducer and activator of transcription 3 (Homo sapiens) (UniProt P40763); assay: Inhibition of STAT3 dimerization in human HepG2 cells assessed as decrease in STAT3 dimer formation at 5 to 10 uM incubated for 24 hrs by SDS-PAGE based DSS crosslink assay; type: cell-based; settings: dose 5-10 µM
[12] = Inhibition of IL-6/JAK/STAT3 signalling pathway in HEK-blue IL-6 cells incubated for 16 hrs by SEAP reporter gene based QUANTI- blue assay; type: cell-based; settings: Homo sapiens, HEK-Blue IL-6, 16 h
[13] = system: ECa-109 cell line; assay: Induction of apoptosis in human EC109 cells assessed as necrotic cells at 10 uM incubated for 48 hrs by Annexin V/PI staining based flow cytometry method (reference value: 0.73%); type: functional
[14] = system: HepG2; assay: Antitumor activity against human HepG2 cells assessed as reduction in cell viability incubated for 72 hrs by MTT assay; type: functional, cell-based; settings: HepG2, 72 h
[15] = target: Signal transducer and activator of transcription 3 (Homo sapiens) (UniProt P40763); assay: Binding affinity to STAT3 (unknown origin) expressed in Escherichia coli BL21 (DE3) assessed as thermal stability by measuring STAT3 accumulation at 55 to 80 degree C at 100 uM incubated for 30 mins by thermal shift assay
[16] = system: ECa-109 cell line; assay: Induction of apoptosis in human EC109 cells assessed as downregulation of cyclin D1 protein expression by Western blotting analysis; type: functional, cell-based; settings: dose 2.5-20 µM, DDE = dose-dependent effect
[17] = system: ECa-109 cell line; assay: Induction of apoptosis in human EC109 cells assessed as necrotic cells at 5 uM incubated for 48 hrs by Annexin V/PI staining based flow cytometry method (reference value: 0.73%); type: functional
[18] = system: ECa-109 cell line; assay: Induction of apoptosis in human EC109 cells assessed as early apoptotic cells at 5 uM incubated for 48 hrs by Annexin V/PI staining based flow cytometry method (reference value: 1.36%); type: functional

Sequence of Signal transducer and activator of transcription 3 (Homo sapiens) (P40763 whole entry): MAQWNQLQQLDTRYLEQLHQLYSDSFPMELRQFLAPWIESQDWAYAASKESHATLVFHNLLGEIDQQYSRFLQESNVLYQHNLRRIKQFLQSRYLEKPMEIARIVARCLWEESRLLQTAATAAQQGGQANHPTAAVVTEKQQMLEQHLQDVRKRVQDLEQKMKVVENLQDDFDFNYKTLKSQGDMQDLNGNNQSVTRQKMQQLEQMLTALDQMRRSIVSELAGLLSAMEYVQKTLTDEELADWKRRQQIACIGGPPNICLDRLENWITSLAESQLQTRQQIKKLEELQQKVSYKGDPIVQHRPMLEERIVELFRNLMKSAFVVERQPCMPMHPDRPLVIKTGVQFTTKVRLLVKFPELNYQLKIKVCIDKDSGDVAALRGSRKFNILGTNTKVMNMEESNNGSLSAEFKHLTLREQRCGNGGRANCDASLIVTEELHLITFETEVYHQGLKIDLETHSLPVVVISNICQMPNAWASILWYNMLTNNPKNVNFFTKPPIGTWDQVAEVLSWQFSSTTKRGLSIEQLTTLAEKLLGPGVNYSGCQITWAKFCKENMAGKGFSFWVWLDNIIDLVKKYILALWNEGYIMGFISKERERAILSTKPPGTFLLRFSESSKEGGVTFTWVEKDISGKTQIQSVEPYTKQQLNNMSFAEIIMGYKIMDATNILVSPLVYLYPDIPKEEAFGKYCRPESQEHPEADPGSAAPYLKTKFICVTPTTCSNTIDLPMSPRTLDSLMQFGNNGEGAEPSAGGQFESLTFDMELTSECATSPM

inhibition [2]: Dde
inhibition [11]: Active
IC50 [12]: 2.61 µM
IC50 [14]: 4.3 µM
Activity [15]: Active
Compound: CCCn1c(-c2cccc(OC)c2)nc2cc3nc(-c4cccc(OC)c4)n(CCC)c3cc21
inhibition [1]: Dde
Activity [3]: Dde
Activity [4]: 0.91%
Activity [5]: 31.4%
Activity [6]: 19.7%
Activity [7]: Dde
Activity [8]: 3.56%
Activity [9]: Dde
Activity [10]: 11%
Activity [13]: 1.1%
Activity [16]: Dde
Activity [17]: 0.87%
Activity [18]: 2.27%
